From US7001607B1, “Artificial tear replacement solution” (Bausch & Lomb Incorporated, priority 1999, dated 2006)

Experiment: surface tension of components
Type: physicochemical

Compound	surface tension σ [mNm]
Fc1c(F)c(F)c2c(c1F)c(F)c(F)c1c(F)c(F)c(F)c(F)c12 [perfluorophenanthrene]	19
perfluoroalkylethanol oxethylate	19
CC[N+]1(CC)CC[N+](CC)(CC)CC1.O=C([O-])C(F)(F)C(F)(F)C(F)(F)C(F)(F)C(F)(F)C(F)(F)C(F)(F)F.O=C([O-])C(F)(F)C(F)(F)C(F)(F)C(F)(F)C(F)(F)C(F)(F)C(F)(F)F [tetraethylpiperazinium salt of perfluorooctanoic acid]	15.9
